In ChEMBL document CHEMBL5346911, “From PROTAC to inhibitor: Structure-guided discovery of potent and orally bioavailable BET inhibitors” (Eur J Med Chem, 2023):
Values after ≈ are worked out from the molar mass of the structure shown.

Tests used:
[1] = system: MOLM-13; assay: cells; settings: Homo sapiens, MOLM-13, 72 h
[2] = in vitro; settings: human, plasma
[3] = system: MV4-11; assay: cells; settings: Homo sapiens, MV4-11, 72 h
[4] = system: D283 Med; assay: cells; settings: Homo sapiens, 72 h
[5] = target: T1, Bromodomain-containing protein 4 (Homo sapiens, UniProt O60885)
[6] = system: HD-MB03; assay: cells; settings: Homo sapiens, HD-MB03, 72 h
[7] = cells; settings: Homo sapiens, NALM16, 72 h
[8] = target: T1, Bromodomain-containing protein 4; remark: listed apart in the source
[9] = target: T2, Bromodomain-containing protein 2 (Homo sapiens, UniProt P25440); assay: Inhibition of BRD2 BD1 (unknown origin) by TR-FRET assay
T2 sequence (P25440 whole entry): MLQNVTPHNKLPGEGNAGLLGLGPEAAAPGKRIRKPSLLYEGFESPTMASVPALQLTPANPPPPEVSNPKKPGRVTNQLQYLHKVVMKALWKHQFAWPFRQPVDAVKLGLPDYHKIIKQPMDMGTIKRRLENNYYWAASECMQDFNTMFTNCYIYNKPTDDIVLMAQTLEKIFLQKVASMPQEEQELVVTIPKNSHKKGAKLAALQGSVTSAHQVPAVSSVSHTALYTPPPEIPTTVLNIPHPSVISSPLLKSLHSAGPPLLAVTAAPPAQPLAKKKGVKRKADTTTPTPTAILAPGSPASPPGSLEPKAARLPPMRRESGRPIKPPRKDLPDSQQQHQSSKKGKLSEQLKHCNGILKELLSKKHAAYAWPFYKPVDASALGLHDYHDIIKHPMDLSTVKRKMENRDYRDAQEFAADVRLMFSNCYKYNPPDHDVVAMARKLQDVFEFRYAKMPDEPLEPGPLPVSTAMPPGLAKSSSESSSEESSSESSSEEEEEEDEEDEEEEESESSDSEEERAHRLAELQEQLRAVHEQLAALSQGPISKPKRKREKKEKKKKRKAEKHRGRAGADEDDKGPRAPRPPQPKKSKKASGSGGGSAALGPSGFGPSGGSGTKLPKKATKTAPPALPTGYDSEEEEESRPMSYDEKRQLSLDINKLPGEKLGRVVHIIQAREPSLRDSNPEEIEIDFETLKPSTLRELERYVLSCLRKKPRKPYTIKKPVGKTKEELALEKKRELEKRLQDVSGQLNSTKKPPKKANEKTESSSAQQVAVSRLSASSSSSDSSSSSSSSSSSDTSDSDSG

[10] = target: T2, Bromodomain-containing protein 2; assay: Inhibition of BRD2 BD2 (unknown origin) by TR-FRET assay
[11] = in vitro; settings: human, Caco-2
[12] = in vitro; settings: human, plasma; remark: listed apart in the source
[13] = buffer, pH 7.4, 18 h
[14] = human, microsomes
[15] = AUClast in CD1 mouse at 10 mg/kg, po measured upto 24 hrs by LC-MS/MS method; type: ADME, organism-based; design: dose 10 mg/kg, time < 24 hrs, route po; settings: in vivo
[16] = Half life in CD1 mouse at 10 mg/kg, po measured upto 24 hrs by LC-MS/MS method; type: ADME, organism-based; settings: in vivo
[17] = AUClast in CD1 mouse at 3 mg/kg, po measured upto 24 hrs by LC-MS/MS method; type: ADME, organism-based; design: dose 3 mg/kg, time < 24 hrs, route po; settings: in vivo
[18] = Unbound clearance in CD1 mouse at 10 mg/kg, po measured upto 24 hrs by LC-MS/MS method; type: ADME, organism-based; settings: in vivo
[19] = Tmax in CD1 mouse at 10 mg/kg, po measured upto 24 hrs by LC-MS/MS method; type: ADME, organism-based; settings: in vivo
[20] = Downregulation of MYC level in human MV4-11 cells at 100 nM measured after 6 hrs by immunoblotting analysis relative to control; type: functional
[21] = Unbound clearance in CD1 mouse at 3 mg/kg, po measured upto 24 hrs by LC-MS/MS method; type: ADME, organism-based; settings: in vivo
[22] = Tmax in CD1 mouse at 3 mg/kg, po measured upto 24 hrs by LC-MS/MS method; type: ADME, organism-based; settings: in vivo
[23] = Oral bioavailability in CD1 mouse at 3 mg/kg measured upto 24 hrs by LC-MS/MS method; type: ADME, organism-based; settings: in vivo
[24] = Unbound clearance in CD1 mouse at 1 mg/kg, iv measured upto 24 hrs by LC-MS/MS method; type: ADME, organism-based; settings: in vivo
[25] = AUClast in CD1 mouse at 1 mg/kg, iv measured upto 24 hrs by LC-MS/MS method; type: ADME, organism-based; design: time < 24 hrs, dose 1 mg/kg, route iv; settings: in vivo
[26] = Oral bioavailability in CD1 mouse at 10 mg/kg measured upto 24 hrs by LC-MS/MS method; type: ADME, organism-based; settings: in vivo
[27] = Downregulation of MYC level in human MV4-11 cells at 1 uM measured after 6 hrs by immunoblotting analysis relative to control; type: functional
[28] = Cmax in CD1 mouse at 10 mg/kg, po measured upto 24 hrs by LC-MS/MS method; type: ADME, organism-based; design: time < 24 hrs, dose 10 mg/kg, route po; settings: in vivo
[29] = Apparent volume of distribution during terminal phase in CD1 mouse at 1 mg/kg, iv measured upto 24 hrs by LC-MS/MS method; type: ADME, organism-based; settings: in vivo
[30] = Cmax in CD1 mouse at 1 mg/kg, iv measured upto 24 hrs by LC-MS/MS method; type: ADME, organism-based; design: time < 24 hrs, dose 1 mg/kg, route iv; settings: in vivo
[31] = Half life in CD1 mouse at 1 mg/kg, iv measured upto 24 hrs by LC-MS/MS method; type: ADME, organism-based; settings: in vivo
[32] = Cmax in CD1 mouse at 3 mg/kg, po measured upto 24 hrs by LC-MS/MS method; type: ADME, organism-based; design: time < 24 hrs, dose 3 mg/kg, route po; settings: in vivo
[33] = Half life in CD1 mouse at 3 mg/kg, po measured upto 24 hrs by LC-MS/MS method; type: ADME, organism-based; settings: in vivo

For `Cc1sc2c(c1C)C(c1ccc(Cl)cc1)=N[C@@H](CC(=O)NCc1c[nH]nn1)c1nnc(C)n1-2`, the IC50 [1] was 3 nM, the half-life at 48 h [2] was greater than 100 h and the IC50 [3] was 253 nM. It also gave an IC50 [4] of 964 nM, an IC50 [5] of 79 nM and an IC50 [6] of 3 nM. It also gave an IC50 [7] of 7 nM, an IC50 [8] of 1 nM and an IC50 [9] of 8 nM.
`Cc1sc2c(c1C)C(c1ccc(Cl)cc1)=N[C@@H](CC(=O)NCc1ccccn1)c1nnc(C)n1-2` showed an IC50 [1] of 8 nM, an IC50 [3] of 444 nM and an IC50 [4] of 228 nM. The IC50 [6] was 263 nM, the IC50 [7] was 14 nM and the IC50 [10] was 0.3 nM. For the same compound, the IC50 [9] was 16 nM.
Work on `Cc1sc2c(c1C)C(c1ccc(Cl)cc1)=N[C@@H](CC(=O)NCc1ccon1)c1nnc(C)n1-2` yielded an IC50 [1] of 14 nM, a half-life at 48 h [2] greater than 100 h and a Papp A→B [11] of 15 ×10⁻⁶ cm/s. It also gave an IC50 [3] of 32 nM, an IC50 [4] of 25 nM and an IC50 [6] of 17 nM. The fraction unbound [12] was 0.065, the solubility [13] was 56.9 µM (≈ 27.4 µg/mL) and the IC50 [7] was 12 nM. It also gave an IC50 [10] of 0.1 nM, a t1/2 [14] of 0.4 h and an IC50 [9] of 3 nM.
`Cc1sc2c(c1C)C(c1ccc(Cl)cc1)=N[C@@H](CC(=O)Nc1ccc(O)cc1)c1nnc(C)n1-2` [BIRABRESIB] showed an IC50 [1] of 11 nM, a half-life at 48 h [2] greater than 100 h and a Papp A→B [11] of 22.2 ×10⁻⁶ cm/s. The IC50 [3] was 22 nM, the IC50 [4] was 66 nM and the fraction unbound [12] was 0.027. The solubility [13] was 23.4 µM (≈ 11.5 µg/mL), the IC50 [7] was 14 nM and the t1/2 [14] was 1.7 h.
For `Cc1sc2c(c1C)C(c1ccc(Cl)cc1)=N[C@@H](CC(=O)NCc1ncco1)c1nnc(C)n1-2`, the IC50 [1] was 2 nM, the IC50 [4] was 18 nM and the IC50 [6] was 1 nM. It also gave an IC50 [10] of 0.1 nM and an IC50 [9] of 9 nM.
With `Cc1sc2c(c1C)C(c1ccc(Cl)cc1)=N[C@@H](CC(=O)NCc1cn(C)cn1)c1nnc(C)n1-2` the IC50 [1] was 52 nM, the half-life at 48 h [2] was greater than 100 h and the IC50 [3] was 143 nM. It also gave an IC50 [4] of 789 nM, an IC50 [5] of 82 nM and an IC50 [6] of 358 nM. It also gave an IC50 [7] of 93 nM, an IC50 [8] of 0.6 nM and an IC50 [10] of 3 nM. For the same compound, the IC50 [9] was 17 nM.
`Cc1sc2c(c1C)C(c1ccc(Cl)cc1)=N[C@@H](CC(=O)OC(C)(C)C)c1nnc(C)n1-2` gave a half-life at 48 h [2] greater than 100 h, an IC50 [4] of 60 nM and an IC50 [6] of 90 nM. The fraction unbound [12] was 0.008, the IC50 [7] was 18 nM and the t1/2 [14] was 0.4 h.
For `Cc1sc2c(c1C)C(c1ccc(Cl)cc1)=N[C@@H](CC(=O)NCc1cn(C)nn1)c1nnc(C)n1-2`, the IC50 [1] was 11 nM, the half-life at 48 h [2] was greater than 100 h and the IC50 [3] was 59 nM. The IC50 [5] was 1410 nM, the IC50 [6] was 40 nM and the IC50 [7] was 14 nM. It also gave an IC50 [8] of 26 nM and an IC50 [9] of 639 nM.
`COC(=O)[C@H](Cc1c[nH]cn1)NC(=O)C[C@@H]1N=C(c2ccc(Cl)cc2)c2c(sc(C)c2C)-n2c(C)nnc21` gave an IC50 [1] of 200 nM, an IC50 [3] of 1140 nM and an IC50 [4] of 2930 nM. It also gave an IC50 [5] of 34 nM, an IC50 [7] of 791 nM and an IC50 [8] of 6 nM. For the same compound, the IC50 [10] was 9 nM and the IC50 [9] was 32 nM.
For `Cc1sc2c(c1C)C(c1ccc(Cl)cc1)=N[C@@H](CC(=O)NCCO)c1nnc(C)n1-2`, the IC50 [1] was 8 nM, the IC50 [4] was 413 nM and the IC50 [6] was 42 nM. The IC50 [7] was 7 nM.
In the case of `Cc1sc2c(c1C)C(c1ccc(Cl)cc1)=N[C@@H](CC(=O)Nc1nncs1)c1nnc(C)n1-2`, the IC50 [1] is reported as 10 nM, the half-life at 48 h [2] is reported as greater than 100 h and the AUClast [15] is reported as 9473 ng·h/mL. The Papp A→B [11] was 6.65 ×10⁻⁶ cm/s, the t1/2 [16] was 3.9 h and the IC50 [3] was 20 nM. For the same compound, the IC50 [4] was 56 nM, the AUClast [17] was 3275.4 ng·h/mL and the CL free [18] was 17.5 mL/min/kg. For the same compound, the Tmax [19] was 0.5 h, the Activity [20] was 50% and the CL free [21] was 15.2 mL/min/kg. It also gave an IC50 [5] of 6 nM, a Tmax [22] of 1 h and an IC50 [6] of 6 nM. The solubility [13] was 12 µM (≈ 5.81 µg/mL), the F [23] was 70% and the CL free [24] was 10.6 mL/min/kg. The AUClast [25] was 1567.1 ng·h/mL, the IC50 [7] was 3 nM and the F [26] was 60%. For the same compound, the Activity [27] was 22%, the Cmax [28] was 3155.6 ng/mL and the IC50 [8] was 0.2 nM. It also gave a Vz/F [29] of 0.8 L/kg, a Cmax [30] of 1930 ng/mL and a t1/2 [31] of 1.5 h. For the same compound, the IC50 [10] was 0.1 nM, the t1/2 [14] was 3.2 h and the Cmax [32] was 1555.3 ng/mL. It also gave a t1/2 [33] of 3.9 h.
In the case of `Cc1sc2c(c1C)C(c1ccc(Cl)cc1)=N[C@@H](CC(=O)NCc1ccccc1)c1nnc(C)n1-2`, the IC50 [1] is reported as 385 nM, the half-life at 48 h [2] is reported as greater than 100 h and the IC50 [6] is reported as 619 nM. The IC50 [7] was 452 nM, the IC50 [8] was 0.3 nM and the IC50 [10] was 0.2 nM. The IC50 [9] was 21 nM.
For `Cc1sc2c(c1C)C(c1ccc(Cl)cc1)=N[C@@H](CC(=O)NCC(=O)O)c1nnc(C)n1-2`, the half-life at 48 h [2] was greater than 100 h, the IC50 [3] was 3060 nM and the IC50 [4] was greater than 8850 nM. For the same compound, the IC50 [6] was 9340 nM, the IC50 [7] was greater than 8850 nM and the IC50 [8] was 0.4 nM. The IC50 [10] was 0.3 nM and the IC50 [9] was 146 nM.
`COC(=O)CNC(=O)C[C@@H]1N=C(c2ccc(Cl)cc2)c2c(sc(C)c2C)-n2c(C)nnc21` showed an IC50 [1] of 9 nM, an IC50 [4] of 337 nM and an IC50 [6] of 359 nM. For the same compound, the IC50 [7] was 16 nM.
Compound `Cc1sc2c(c1C)C(c1ccc(Cl)cc1)=N[C@@H](CC(=O)Nc1nccs1)c1nnc(C)n1-2` has an IC50 [1] of 22 nM, a half-life at 48 h [2] greater than 100 h and an IC50 [3] of 40 nM. It also gave an IC50 [6] of 4 nM, an IC50 [7] of 6 nM and an IC50 [9] of 10 nM.
With `Cc1sc2c(c1C)C(c1ccc(Cl)cc1)=N[C@@H](CC(=O)NCCc1c[nH]c3ccccc13)c1nnc(C)n1-2` the IC50 [1] was 318 nM, the IC50 [3] was 182 nM and the IC50 [6] was 254 nM. For the same compound, the IC50 [7] was 172 nM, the IC50 [10] was 50 nM and the IC50 [9] was 252 nM.
